The source of these data is ChEMBL document CHEMBL1201862, “PubChem BioAssay data set” (2004).

Test systems include HCC 2998; TK-10; M14; SK-MEL-28; SNB-78; HCT-116; IGROV-1; SW-620; NCI-H522; OVCAR-8; HL-60; NCI-H23; RPMI-8226; NCI-H460; SK-MEL-5; HOP-92; DU-145; PC-3; Hs-578T; NCI/ADR-RES.
Holding throughout (experiment): NCI-60 cell line screen, 48 h

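Where inhibition never reached the appropriate level, the endpoint shown equals the highest concentration tested. Otherwise, values were interpolated linearly from a five-concentration, 48-hour dose response in 96-well plates. GI50: concentration for 50% inhibition of growth.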 Calls of active or inactive are those of the source. No stated cut-off is given here; in the data, active = GI50 up to about 1.1 µM and inactive = higher.

As to `O=[N+]([O-])C(=C(c1ccccc1)c1ccccc1)[N+](=O)[O-]`, the GI50 in the experiment on HCC 2998 is 11.4 µM (inactive); in the experiment with TK-10 it was 18.6 µM (inactive); with M14 it was 11.9 µM (inactive); in the experiment with SK-MEL-28 it was 7.98 µM (inactive); in the experiment on SNB-78, > 10 µM (inactive); with HCT-116, 11.9 µM (inactive). Also, the GI50 in the experiment with IGROV-1 is 5.96 µM (inactive); with SW-620, 11.4 µM (inactive); in the experiment with NCI-H522, 15.4 µM (inactive); with OVCAR-8 it was 9.86 µM (inactive); with HL-60, 3.32 µM (inactive); with NCI-H23 it was 17.4 µM (inactive). In addition, the values for the GI50 in the experiment with RPMI-8226 and in the experiment on NCI-H460 were 2.45 µM (inactive) and 5.57 µM (inactive), respectively.
Turning to `CC12CCC(=O)N1c1ccc([N+](=O)[O-])cc1N2` (centres undefined), the GI50 with M14, in the experiment with SK-MEL-28, in the experiment with SNB-78, in the experiment with HCT-116, in the experiment on IGROV-1 and with SW-620 was > 100 µM (inactive) in each case. For the same molecule, the GI50 is > 100 µM (inactive) in the experiment with NCI-H522; > 100 µM (inactive) with OVCAR-8; > 100 µM (inactive) in the experiment with SK-MEL-5; 92.9 µM (inactive) in the experiment with HL-60; > 100 µM (inactive) with NCI-H23; > 100 µM (inactive) with RPMI-8226.
`CSc1ccc2c(cc1=O)C(NC(=O)c1ccc(OC(C)=O)cc1)CCc1cc(O)c(O)c(O)c1-2` (centres undefined): the GI50 with HCC 2998 is 74.1 µM (inactive); with TK-10, 91.2 µM (inactive); in the experiment on M14, 16.7 µM (inactive); with SK-MEL-28, 61.7 µM (inactive); in the experiment with SNB-78, 30.8 µM (inactive); in the experiment on HCT-116 it was 17.3 µM (inactive). The GI50 was 13.1 µM (inactive) in the experiment on SW-620; 12.8 µM (inactive) in the experiment on NCI-H522; 25.1 µM (inactive) in the experiment on OVCAR-8; 16 µM (inactive) in the experiment with SK-MEL-5; 3.31 µM (inactive) with HL-60; 25.3 µM (inactive) in the experiment with NCI-H23. Further, in the experiment on NCI-H460, the GI50 was 23.2 µM (inactive).
Turning to `O=c1[nH]c2c(c3ccccc13)CCc1ccccc1-2`, the GI50 with HCC 2998, in the experiment on TK-10, with SK-MEL-28, with SNB-78, with HCT-116 and with IGROV-1 was > 100 µM (inactive) in each case. The GI50 in the experiment on SW-620, in the experiment with NCI-H522, in the experiment on OVCAR-8, in the experiment with SK-MEL-5, with NCI-H23 and in the experiment on RPMI-8226 was > 100 µM (inactive) in each case.
On to `Cc1cc2c(=O)c3ccc(Cl)cc3[nH]c2c(C(=O)O)c1C`, for which the GI50 in the experiment with HCC 2998, in the experiment on TK-10, in the experiment with M14, with SK-MEL-28, with SNB-78 and with HCT-116 was > 100 µM (inactive) in each case. For the same molecule, the GI50 is > 100 µM (inactive) with IGROV-1; > 100 µM (inactive) in the experiment on SW-620; 73.8 µM (inactive) with NCI-H522; > 100 µM (inactive) with OVCAR-8; > 100 µM (inactive) in the experiment on SK-MEL-5; > 100 µM (inactive) in the experiment with NCI-H23. In addition, the GI50 in the experiment on RPMI-8226 and with NCI-H460 was > 100 µM (inactive) throughout.
In the case of `Cc1nc2c(n1CCC(C)C)C(=O)c1ccccc1C2=O`, the GI50 with HCC 2998 is 40.9 µM (inactive); in the experiment on TK-10 it was 41.2 µM (inactive); with M14, 20.1 µM (inactive); with SK-MEL-28, 17.3 µM (inactive); in the experiment on SNB-78 it was 28.1 µM (inactive); in the experiment with HCT-116, 6.84 µM (inactive). Also, the GI50 is 22.3 µM (inactive) in the experiment with IGROV-1; 37.9 µM (inactive) with SW-620; 20.5 µM (inactive) in the experiment with NCI-H522; 27.9 µM (inactive) in the experiment on OVCAR-8; 14.6 µM (inactive) in the experiment on SK-MEL-5; 6 µM (inactive) in the experiment on HL-60. The GI50 with NCI-H23 is 22.3 µM (inactive); in the experiment on NCI-H460 it was 6.08 µM (inactive).
For `O=C(NCC#CCO)C(F)(F)F`, the GI50 with HCC 2998, in the experiment on TK-10, with M14, in the experiment with SK-MEL-28, in the experiment with SNB-78 and in the experiment with HCT-116 was > 100 µM (inactive) in each case. For the same molecule, the GI50 with IGROV-1, in the experiment on SW-620, in the experiment on NCI-H522, in the experiment with OVCAR-8, with SK-MEL-5 and with NCI-H23 was > 100 µM (inactive) in each case. For the same molecule, the GI50 with NCI-H460 was > 100 µM (inactive).
As for `COCOCc1cc(OCc2ccccc2)c(OC)cc1Br`, the GI50 in the experiment with HOP-92, in the experiment with TK-10, in the experiment on SK-MEL-28, in the experiment on SNB-78, with HCT-116 and with IGROV-1 was > 100 µM (inactive) in each case. The GI50 with SW-620 was > 100 µM (inactive); in the experiment with OVCAR-8 it was > 100 µM (inactive); with SK-MEL-5, 61.1 µM (inactive); in the experiment on NCI-H23, > 100 µM (inactive); in the experiment on RPMI-8226, 47 µM (inactive); in the experiment with NCI-H460, > 100 µM (inactive).
For `COc1ccc(-c2onc(-c3ccc([N+](=O)[O-])cc3)c2C2=NCCN2)cc1`, the GI50 is > 100 µM (inactive) with HCC 2998; > 100 µM (inactive) with M14; > 100 µM (inactive) in the experiment with SK-MEL-28; 67.3 µM (inactive) in the experiment with SNB-78; 36 µM (inactive) in the experiment with HCT-116; > 100 µM (inactive) with IGROV-1. The GI50 was > 100 µM (inactive) in the experiment with SW-620; > 10 µM (inactive) in the experiment on NCI-H522; > 100 µM (inactive) with OVCAR-8; 83.6 µM (inactive) with SK-MEL-5; > 100 µM (inactive) in the experiment with HL-60; > 100 µM (inactive) with NCI-H23. The GI50 in the experiment on RPMI-8226 is > 100 µM (inactive); in the experiment on NCI-H460, 45.9 µM (inactive).
For the molecule `C=CC(c1ccccc1)[C@@]1(OC(C)=O)C(=O)C(=O)OC1C1COC(C)(C)O1` (some centres undefined), the GI50 with HOP-92 was 5.92 µM (inactive); in the experiment with HCC 2998 it was 17.2 µM (inactive); in the experiment with DU-145, 21.2 µM (inactive); in the experiment with TK-10 it was 14.1 µM (inactive); in the experiment on M14, 11.1 µM (inactive); with PC-3 it was 10.9 µM (inactive). The GI50 in the experiment on SK-MEL-28 was 8.32 µM (inactive); in the experiment with HCT-116 it was 11.1 µM (inactive); with Hs-578T, 22.9 µM (inactive); in the experiment on IGROV-1, 15.3 µM (inactive); in the experiment with NCI/ADR-RES, 15.5 µM (inactive); in the experiment with SW-620 it was 8.13 µM (inactive). Besides, the GI50 in the experiment on NCI-H522 is 3.77 µM (inactive); in the experiment with OVCAR-8, 13.1 µM (inactive); with SK-MEL-5, 15.9 µM (inactive); in the experiment on HL-60, 2.11 µM (inactive); in the experiment with NCI-H23, 18.2 µM (inactive); in the experiment with RPMI-8226, 5.79 µM (inactive). Moreover, the GI50 in the experiment with NCI-H460 was 14.5 µM (inactive).
In the case of `COC(=O)CNC(=O)CCC(C)[C@H]1CCC2C3C(C[C@H](OC(C)=O)[C@@]21C)[C@@]1(C)CCC2(C[C@H]1C[C@H]3OC(C)=O)OOC1(CC[C@]3(C)C4C[C@H](OC(C)=O)[C@@]5(C)C(CC[C@@H]5C(C)CCC(=O)NCC(=O)OC)C4[C@H](OC(C)=O)C[C@@H]3C1)OO2` (some centres undefined), the GI50 in the experiment with HOP-92 was 0.942 µM (active); in the experiment on HCC 2998, 0.944 µM (active); in the experiment with DU-145, 0.933 µM (active); in the experiment with TK-10 it was 1.19 µM (inactive); in the experiment with M14 it was 1.37 µM (inactive); with PC-3, 1.64 µM (inactive). The GI50 was 1.61 µM (inactive) with SK-MEL-28; 1.99 µM (inactive) in the experiment on HCT-116; 0.938 µM (active) in the experiment on Hs-578T; 0.836 µM (active) in the experiment with IGROV-1; 8.75 µM (inactive) in the experiment on NCI/ADR-RES; 1.71 µM (inactive) in the experiment with SW-620. Moreover, the GI50 in the experiment with NCI-H522 is 0.991 µM (active); with OVCAR-8, 0.746 µM (active); with SK-MEL-5, 0.94 µM (active); with HL-60 it was 1.11 µM (active); with NCI-H23 it was 1.03 µM (active); with RPMI-8226, 0.309 µM (active). Further, in the experiment on NCI-H460, the GI50 is 2.07 µM (inactive).
As to `CC(=O)O[C@@H]1[C@H]2O[C@H]2[C@H]2O[C@@]2(COC(=O)c2ccccc2)[C@H]1OC(C)=O`, the GI50 was > 100 µM (inactive) with HOP-92; > 100 µM (inactive) in the experiment on HCC 2998; 73.5 µM (inactive) in the experiment on DU-145; > 100 µM (inactive) in the experiment with TK-10; > 100 µM (inactive) with M14; > 100 µM (inactive) with PC-3. Moreover, the GI50 with SK-MEL-28 is > 100 µM (inactive); with HCT-116, > 100 µM (inactive); in the experiment with Hs-578T it was > 100 µM (inactive); in the experiment on IGROV-1, 35.8 µM (inactive); with NCI/ADR-RES it was > 100 µM (inactive); in the experiment with SW-620, > 100 µM (inactive). Moreover, the GI50 in the experiment on NCI-H522 was > 100 µM (inactive); in the experiment on OVCAR-8, 71.9 µM (inactive); with SK-MEL-5 it was > 100 µM (inactive); with HL-60 it was > 100 µM (inactive); in the experiment with NCI-H23 it was > 100 µM (inactive); in the experiment on RPMI-8226 it was > 100 µM (inactive). Further, the GI50 in the experiment on NCI-H460 is 34.2 µM (inactive).
Take `Cc1ccc(C2NC(=O)c3ccccc3N2)c(C)c1` (centres undefined): the GI50 in the experiment on HOP-92 is 9.53 µM (inactive); with HCC 2998 it was 4.52 µM (inactive); in the experiment on DU-145, 5.71 µM (inactive); in the experiment on TK-10, 7.33 µM (inactive); in the experiment with M14, 2.16 µM (inactive); in the experiment with PC-3, 1.66 µM (inactive). For the same molecule, the GI50 with SK-MEL-28 is 6.58 µM (inactive); in the experiment on HCT-116, 2.39 µM (inactive); in the experiment on Hs-578T, 2.4 µM (inactive); with IGROV-1 it was 4.62 µM (inactive); in the experiment with NCI/ADR-RES it was 1.34 µM (inactive); with SW-620, 1.05 µM (active). Also, the GI50 was 1.88 µM (inactive) in the experiment with NCI-H522; 5.28 µM (inactive) in the experiment on OVCAR-8; 0.951 µM (active) with SK-MEL-5; 0.453 µM (active) with HL-60; 7.14 µM (inactive) in the experiment with NCI-H23; 0.807 µM (active) with RPMI-8226. Also, the GI50 in the experiment on NCI-H460 is 3.07 µM (inactive).
